What was measured:
[1] = test system: 22Rv1 cells transfected with AR-V7 or AR-FL; assay: Proliferation of 22Rv1 cells transfected with AR-V7 and/or AR-FL; assay type: cell-based, human; settings: 1 μM
Excerpt: Transient Transfections. One μg of a plasmid containing cDNA of AR-V7 or AR-FL is transfected into indicated the CaP cell lines on 6-well plates. Three μl of lipofectamine 3000 is used for each transfection.

[2] = test system: Enzalutamide-resistant CaP tumor xenografts; assay: Enzalutamide-resistant CaP tumor xenograft, systemic (IP or oral) dosing; assay type: in vivo, mice; settings: four weeks, with enzalutamide, control 2200 mm^3
Experimental: In Vivo Study. To explore the therapeutic potential of Test Compound, 22Rv1, 22Rv1-Enz^R, VCaP, and VCaP-Enz^R are injected into nu/nu immunodeficient mice. When the resulting tumors reached an average size of 3 mm in diameter, all animals are surgically castrated via bilateral orchiectomy and divided into four groups of five mice each. For anesthesia, 3% isoflurane gas inhalation is used. Tumor size was measured using calipers and tumor volume was calculated using the formula: tumor volume=length×width^2[…].
Mice are then treated daily with Test Compound with or without enzalutamide via the indicated route (intratumoral, intraperitoneal, or oral) for five to six weeks. At the end of the study, all animals are sacrificed and tumors are harvested and analyzed. Statistical significance is calculated using the Student's t-test for paired comparisons of experimental groups and, where appropriate, by Wilcoxon rank sum test, and by 2-way ANOVA. In vitro experiments are repeated a minimum of three times.
To test whether the Compound is active systemically, an identical study is carried out as above except for delivering the Compound intraperitoneally (IP) or orally for four weeks. Enzalutamide-resistant CaP tumor xenografts are established in twelve mice and three each are assigned to the following four groups: control IP (vehicle), control oral (vehicle), 8.3 mg/kg IP, and 8.3 mg/kg oral. […]

22Rv1 cells = assay: Apoptosis assay (annexin-V, TUNEL) in 22Rv1; assay type: cell-based, human; settings: 22Rv1, 1 μM
Experimental: Apoptosis Assay. An apoptosis assay is carried out using the Thermo Fisher ApoDETECT Annexin V-FITC kit following the protocol recommended by the vendor. […] Then, fixed cells are incubated with Annexin V-FITC in PBS solution for 30 minutes at room temperature. After washing three times with PBS, cells are treated with 300 nM DAPI in PBS for 5 minutes at room temperature. Finally, after washing three times with PBS, mounting solution is added and the cells are visualized using immunofluorescence microscopy. Next, a TUNEL assay is performed using Promega DeadEnd Fluorometric TUNEL system. After treatment with Test Compound and fixation as described above in the Annexin-V experiment, 100 μl of equilibration buffer is incubated for 10 min. Then, 50 μl of TdT reaction mix is added and incubated for 60 min at 37° C. in a humidified chamber. Finally, stop solution is added and samples are mounted on slides using mounting medium. To assess non-specific cytotoxicity, an LDH assay kit is used.

AR-FL and AR-V7 mRNA = assay: mRNA levels of AR-FL and AR-V7 (quantitative PCR); assay type: cell-based, human
22Rv1-Enz^R = 22Rv1-Enz^R cell proliferation assay, GIC50 (Experimental Example 4); assay type: cell-based; settings: Homo sapiens; 6-day culture, cell media changed every 24 hours
Experimental: Selected compounds were tested in the human prostate cancer cell line, 22Rv1-Enz^R as described in Geun Taek Lee et al., Molecular Cancer Therapeutics, 20:490-9 (2021). These procedures are similar to that described in Experimental Example 1, above, except that the assay conditions are a 6-day culture with cell media changed every 24 hours.
In the Table: (+)—GIC50<20 μM; (++)—GIC50<10 μM; (+++)—GIC50<1 μM.

For Cc1ncsc1-c1ccc([C@H](C)NC(=O)[C@@H]2C[C@@H](O)CN2C(=O)[C@@H](NC(=O)CCCCNC(=O)COc2c(-c3csc(N4CCOCC4)n3)ccc(F)c2F)C(C)(C)C)cc1 [Example 16, (2S,4R)-1-((S)-2-(5-(2-(2,3-difluoro-6-(2-morpholinothiazol-4-yl)phenoxy)acetamido)pentanamido)-3,3-dimethylbutanoyl)-4-hydroxy-N-((S)-1-(4-(4-methylthiazol-5-yl)phenyl)ethyl)pyrrolidine-2-carboxamide], the “inhibitory effect after transfection of both AR-V7 and AR-FL into 22Rv1 cells” value ([1]; both transfected) was “completely abrogated”, the “inhibitory effect after transfecting AR-V7 or AR-FL into 22Rv1 cells” value ([1]; single transfection) was “partial resistance” and the tumor size ([2]; 8.3 mg/kg IP) was “approximately 1000 mm^3”. The tumor size ([2]; 8.3 mg/kg oral (PO)) was “approximately 700 mm^3”, the “apoptosis, TUNEL assay” value (22Rv1 cells) was “confirmed” and the “apoptosis, annexin-V assay” value (22Rv1 cells; 0 to 48 hours, starts approximately three hours after treatment, increases through 48 hours) was “increase in annexin-V staining”. The “effect on mRNA levels of AR-FL and AR-V7” value (AR-FL and AR-V7 mRNA) was “no major effect” and the IC50 (22Rv1-Enz^R) was less than 1 µM.
